Measured values: patent US20250188110A1, “SPECIFIC SMALL MOLECULE INHIBITORS THAT BLOCK KMT9 METHYLTRANSFERASE ACTIVITY AND FUNCTION” (ALBERT-LUDWIGS-UNIVERSITÄT FREIBURG, priority 2021, published 2025)
Like-named read-outs stand apart in the source and are kept apart here.

How the values were obtained:
[1] = biological target: T1, KMT9 (Homo sapiens, UniProt Q9Y5N5); assay: Microscale thermophoresis (MST) KMT9 binding
T1 sequence (Q9Y5N5 1-214): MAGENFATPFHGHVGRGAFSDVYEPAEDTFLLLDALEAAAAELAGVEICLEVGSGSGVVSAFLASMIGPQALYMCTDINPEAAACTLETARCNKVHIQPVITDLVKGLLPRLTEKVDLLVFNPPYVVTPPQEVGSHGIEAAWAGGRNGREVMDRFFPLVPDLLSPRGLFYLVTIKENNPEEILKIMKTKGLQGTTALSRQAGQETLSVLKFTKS
T1 sequence (Q9UI30 1-120 isoform Q9UI30-2 partner): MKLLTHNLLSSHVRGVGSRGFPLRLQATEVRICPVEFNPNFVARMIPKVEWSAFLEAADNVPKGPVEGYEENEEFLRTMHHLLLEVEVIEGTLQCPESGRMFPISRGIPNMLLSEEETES
Method in brief: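 Kd from microscale thermophoresis: compound series against 20 nM His-KMT9 labelled via RED-Tris-NTA, buffer 25 mM HEPES (pH 7.5)/100 mM NaCl/1 mM DTT/0.05% Tween, 40% MST power, 100% LED. Reported as classes: A ≤10 nM, B >10–100 nM, C >100–1000 nM, D >1000 nM.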

[2] = biological target: T1, KMT9; assay: KMT9 thermal shift assay (SyproOrange); format: binding
Method in brief: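 ΔTm versus DMSO-only control is reported in bins (>20 K, 15–20 K, 10–15 K, ≤10 K), using Tm from Boltzmann sigmoidal fits of SyproOrange melt curves. KMT9 with compound in pH 8.5 BTP buffer containing MgCl2 and DTT was preincubated at 25° C, then ramped 1° C per 15 s up to 95° C.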

[3] = biological target: T1, KMT9; assay: KMT9 methyltransferase inhibition assay, MTaseGlo luminescence (from entry 155); format: biochemical; conditions: 100 nM KMT9, 5 μM ETF1, 1 μM SAM
Method in brief: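 KMT9 (100 nM final) pre-incubated with inhibitor for 15 min at room temperature, then reacted with 5 μM ETF1 and 1 μM SAM for 2 h at 30° C. at 2% DMSO final. MTaseGlo luminescence read after 60 min detection; IC50 reported in four potency bins.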

[4] = His-tag labelled KMT9 20 nM, Kd class, read-out: MST
[5] = ΔTm class, 500 uM compound, 2 μM KMT9, read-out: Thermal shift
[6] = IC50 class, MTaseGlo procedure (entries from 155 on), read-out: Inhibition
[7] = His-tag labelled KMT9 20 nM, read-out: MST (Kd)
[8] = 500 µM compound, 2 μM KMT9, read-out: Thermal shift (ΔTm)
[9] = MTaseGlo procedure (entries from 155), read-out: Inhibition (IC50)
[10] = microscale thermophoresis, His-tag labelled KMT9 (20 nM), read-out: MST
[11] = ΔTm, 500 µM compound, 2 μM KMT9, 5X SO, read-out: Thermal shift
[12] = from entry 155: MTaseGlo assay, read-out: Inhibition

| Compound | Kd [1, 4] [µM] | ΔTm at 500 µM [2, 5] [°C] | IC50 [3, 6] [µM] | Kd [1, 7] [µM] | ΔTm at 500 µM [2, 8] [°C] | IC50 [3, 9] [µM] | further results |
| --- | --- | --- | --- | --- | --- | --- | --- |
| O[C@@H]1[C@H](O)[C@@H](C2=CCCN(CCc3ccccc3)C2)C[C@H]1n1cc(-c2nc(Cc3ccccc3)cs2)c2cnc(Cl)nc21 [Compound 588, (1R,2S,3R,5R)-3-[5-(4-Benzyl-1,3-thiazol-2-yl)-2-chloropyrrolo[2,3-d]pyrimidin-7-yl]-5-[1-(2-phenylethyl)-5,6-dihydro-2H-pyridin-3-yl]cyclopentane-1,2-diol] | > 1 | ≤ 10 | > 10 | – | – | – | – |
| Nc1nc(Cl)nc2c1ccn2[C@@H]1C[C@H](c2ccc(=O)[nH]c2)[C@@H](O)[C@H]1O [Compound 590, 5-[(1R,2R,3S,4R)-4-{4-Amino-2-chloropyrrolo[2,3-d]pyrimidin-7-yl}-2,3-dihydroxycyclopentyl]-1H-pyridin-2-one] | – | – | – | 0.1 to 1 | ≤ 10 | 1 to 10 | – |
| COc1ccc([C@H]2C[C@@H](n3ccc4c(N)nc(Cl)nc43)[C@H](O)[C@@H]2O)cn1 [Compound 591, (1R,2S,3R,5R)-3-{4-amino-2-chloropyrrolo[2,3-d]pyrimidin-7-yl}-5-(6-methoxypyridin-3-yl)cyclopentane-1,2-diol] | – | – | – | 0.01 to 0.1 | 10 to 15 | 0.1 to 1 | – |
| NCCc1cccc([C@H]2C[C@@H](n3ccc4c(N)ncnc43)[C@H](O)[C@@H]2O)c1 [Compound 592, (1S,2R,3R,5R)-3-[3-(2-Aminoethyl)phenyl]-5-{4-aminopyrrolo[2,3-d]pyrimidin-7-yl}cyclopentane-1,2-diol] | – | – | – | > 1 | ≤ 10 | 1 to 10 | – |
| CC1CNCCC1[C@H]1C[C@@H](n2cc(-c3nc(Cc4ccccc4)cs3)c3c(N)ncnc32)[C@H](O)[C@@H]1O (stereo partly drawn) [Compound 595, (1R,2S,3R,5R)-3-[4-amino-5-(4-benzyl-1,3-thiazol-2-yl)pyrrolo[2,3-d]pyrimidin-7-yl]-5-(3-methylpiperidin-4-yl)cyclopentane-1,2-diol] | – | – | – | 0.1 to 1 | 10 to 15 | 1 to 10 | – |
| CNc1nc(Cl)nc2c1ccn2[C@@H]1C[C@H](c2ccccc2)[C@@H](O)[C@H]1O [Compound 596, (1R,2S,3R,5R)-3-(2-Chloro-4-(methylamino)-7H-pyrrolo[2,3-d]pyrimidin-7-yl)-5-phenylcyclopentane-1,2-diol] | – | – | – | 0.1 to 1 | ≤ 10 | 1 to 10 | – |
| CN1CCC[C@H]([C@H]2C[C@@H](n3cc(-c4nc(Cc5ccccc5)cs4)c4c(N)nc(Cl)nc43)[C@H](O)[C@@H]2O)C1 [Compound 597R, (1R,2S,3R,5R)-3-(4-Amino-5-(4-benzylthiazol-2-yl)-2-chloro-7H-pyrrolo[2,3-d]pyrimidin-7-yl)-5-((R)-1-methylpiperidin-3-yl)cyclopentane-1,2-diol] | – | – | – | ≤ 0.01 | 15 to 20 | 0.1 to 1 | – |
| CN1CCC[C@@H]([C@H]2C[C@@H](n3cc(-c4nc(Cc5ccccc5)cs4)c4c(N)nc(Cl)nc43)[C@H](O)[C@@H]2O)C1 [Compound 597S, (1R,2S,3R,5R)-3-(4-amino-5-(4-benzylthiazol-2-yl)-2-chloro-7H-pyrrolo[2,3-d]pyrimidin-7-yl)-5-((S)-1-methylpiperidin-3-yl)cyclopentane-1,2-diol] | – | – | – | ≤ 0.01 | 15 to 20 | 0.1 to 1 | – |
| Nc1ncnc2c1c(-c1nc(Oc3ccccc3)cs1)cn2[C@@H]1C[C@H](CNCCCNCCc2ccccc2)[C@@H](O)[C@H]1O [Compound 607, (1R,2S,3R,5R)-3-(4-amino-5-(4-phenoxythiazol-2-yl)-7H-pyrrolo[2,3-d]pyrimidin-7-yl)-5-(((3-(phenethylamino)propyl)amino)methyl)cyclopentane-1,2-diol] | – | – | – | – | – | – | Kd [1, 10]: 0.01 to 0.1 µM; ΔTm at 500 µM [2, 11]: 15 to 20 °C; IC50 [3, 12]: 0.1 to 1 µM |
| O[C@@H]1[C@@H](CNCCCNCCc2ccccc2)C[C@@H](n2cc(-c3nc(Cc4ccccc4)cs3)c3cncnc32)[C@@H]1O [Compound 613, (1R,2S,3R,5R)-3-(5-(4-benzylthiazol-2-yl)-7H-pyrrolo[2,3-d]pyrimidin-7-yl)-5-(((3-(phenethylamino)propyl)amino)methyl)cyclopentane-1,2-diol] | – | – | – | – | – | – | Kd [1, 10]: > 1 µM; ΔTm at 500 µM [2, 11]: 10 to 15 °C; IC50 [3, 12]: 1 to 10 µM |
| O[C@@H]1[C@@H](CN(CCCNCCc2ccccc2)c2cn[nH]c2)C[C@@H](n2cc(-c3cccs3)c3cncnc32)[C@@H]1O [Compound 616] | – | – | – | – | – | – | Kd [1, 10]: 0.01 to 0.1 µM; ΔTm at 500 µM [2, 11]: 10 to 15 °C; IC50 [3, 12]: 1 to 10 µM |
| O[C@@H]1[C@@H](CNCCCNCCc2ccccc2)C[C@@H](n2cc(-c3cc(Cc4ccccc4)ns3)c3cncnc32)[C@@H]1O [Compound 617, (1R,2S,3R,5R)-3-[5-(3-Benzyl-1,2-thiazol-5-yl)pyrrolo[2,3-d]pyrimidin-7-yl]-5-[({3-[(2-phenylethyl)amino]propyl}amino)methyl]cyclopentane-1,2-diol] | – | – | – | – | – | – | Kd [1, 10]: > 1 µM; ΔTm at 500 µM [2, 11]: 10 to 15 °C; IC50 [3, 12]: 1 to 10 µM |

Now from value to compound, other results behind:

| Kd [1, 4] [µM] | ΔTm at 500 µM [2, 5] [°C] | IC50 [3, 6] [µM] | Kd [1, 7] [µM] | ΔTm at 500 µM [2, 8] [°C] | IC50 [3, 9] [µM] | Compound | further results |
| --- | --- | --- | --- | --- | --- | --- | --- |
| 0.1 to 1 | 10 to 15 | 1 to 10 | – | – | – | Nc1ncnc2c1c(-c1nc(Cc3ccccc3)cs1)cn2[C@@H]1C[C@H]([C@H]2CCNC2)[C@@H](O)[C@H]1O [Compound 589R, (1R,2S,3R,5R)-3-[4-Amino-5-(4-benzyl-1,3-thiazol-2-yl)pyrrolo[2,3-d]pyrimidin-7-yl]-5-[(3R)-pyrrolidin-3-yl]cyclopentane-1,2-diol] | – |
| 0.1 to 1 | 10 to 15 | 1 to 10 | – | – | – | Nc1ncnc2c1c(-c1nc(Cc3ccccc3)cs1)cn2[C@@H]1C[C@H]([C@@H]2CCNC2)[C@@H](O)[C@H]1O [Compound 589S, (1R,2S,3R,5R)-3-[4-Amino-5-(4-benzyl-1,3-thiazol-2-yl)pyrrolo[2,3-d]pyrimidin-7-yl]-5-[(3S)-pyrrolidin-3-yl]cyclopentane-1,2-diol] | – |
| > 1 | ≤ 10 | > 10 | – | – | – | COc1csc(-c2cn([C@@H]3C[C@H](CNCCCNCCc4ccccc4)[C@@H](O)[C@H]3O)c3ncncc23)n1 [Compound 615, (1R,2S,3R,5R)-3-(5-(4-Methoxythiazol-2-yl)-7H-pyrrolo[2,3-d]pyrimidin-7-yl)-5-(((3-(phenethylamino)propyl)amino)methyl)cyclopentane-1,2-diol] | – |
| 0.1 to 1 | 10 to 15 | 1 to 10 | – | – | – | O[C@@H]1[C@@H](CNCCCNCCc2ccc(F)cc2)C[C@@H](n2cc(-c3cc(Cc4ccccc4)cs3)c3cncnc32)[C@@H]1O [Compound 618, (1R,2S,3R,5R)-3-[5-(4-Benzylthiophen-2-yl)pyrrolo[2,3-d]pyrimidin-7-yl]-5-{[(3-{[2-(4-fluorophenyl)ethyl]amino}propyl)amino]methyl}cyclopentane-1,2-diol] | – |
| > 1 | ≤ 10 | > 10 | – | – | – | O[C@@H]1[C@@H](CNCCCNCCc2ccc(C(F)(F)F)cc2)C[C@@H](n2cc(-c3cc(Cc4ccccc4)cs3)c3cncnc32)[C@@H]1O [Compound 619, (1R,2S,3R,5R)-3-(5-(4-Benzylthiophen-2-yl)-7H-pyrrolo[2,3-d]pyrimidin-7-yl)-5-(((3-((4-(trifluoromethyl)phenethyl)amino)propyl)amino)methyl)cyclopentane-1,2-diol] | – |
| 0.1 to 1 | 10 to 15 | 1 to 10 | – | – | – | CN(CCCNCCc1ccccc1)C[C@H]1C[C@@H](n2cc(-c3cc(Cc4ccccc4)cs3)c3cncnc32)[C@H](O)[C@@H]1O [Compound 620, (1R,2S,3R,5R)-3-[5-(4-Benzylthiophen-2-yl)pyrrolo[2,3-d]pyrimidin-7-yl]-5-{[methyl({3-[(2-phenylethyl)amino]propyl})amino]methyl}cyclopentane-1,2-diol] | – |
